Results published in patent publication US7790724B2, “c-fms kinase inhibitors” (Janssen Pharmaceutica N.V., priority 2003, dated 2010).
Where a name gives a salt, the structure may show the parent alone. Read-outs that look alike come from different tables or passages of the source.

Target: T1, c-fms (Homo sapiens, UniProt P07333)
T1 construct: 3DP
Assay: autophosphorylation, fluorescence polarization competition immunoassay for c-fms inhibition
Format: biochemical
Details: for inhibition at 10 µM: read-out: % Inhibition (at 10 μM); for inhibition at 2 µM: @ 2 μM compound (values marked *)
Method: The assay was performed in black 96-well microplates (LJL BioSystems). The assay buffer used was 100 mM HEPES, pH 7.5, 1 mM DTT, 0.01% (v/v) Tween-20. Compounds were diluted in assay buffer containing 4% DMSO just prior to the assay. […] The kinase reaction was initiated by adding 2 μL of 5 mM ATP (Sigma) in assay buffer. The final concentrations in the assay were 10 nM c-fms, 1 mM ATP, 5 mM MgCl2, 2% DMSO. Control reactions were ran in each plate: in positive and negative control wells, assay buffer (made 4% in DMSO) was substituted for the compound; in addition, positive control wells received 1.2 μL of 50 mM EDTA.
The plates were incubated at room temperature for 45 min. At the end of the incubation, the reaction was quenched with 1.2 μL of 50 mM EDTA (EDTA was not added to the positive control wells at this point; see above). Following a 5-min incubation, each well received 10 μL of a 1:1:3 mixture of anti-phosphotyrosine antibody, 10×, PTK green tracer, 10× (vortexed), FP dilution buffer, respectively (all from PanVera, cat. # P2837). The plate was covered, incubated for 30 min at room temperature and the fluorescence polarization was read on the Analyst. […] The reported IC50 values are averages of three independent measurements.

[1] = 10 nM c-fms, 1 mM ATP, averages of three independent measurements, read-out: IC50
[2] = determined in a similar fashion for Examples 11-68, read-out: IC-50 (activites below 1 μM)

T1 sequence (P07333 20-972): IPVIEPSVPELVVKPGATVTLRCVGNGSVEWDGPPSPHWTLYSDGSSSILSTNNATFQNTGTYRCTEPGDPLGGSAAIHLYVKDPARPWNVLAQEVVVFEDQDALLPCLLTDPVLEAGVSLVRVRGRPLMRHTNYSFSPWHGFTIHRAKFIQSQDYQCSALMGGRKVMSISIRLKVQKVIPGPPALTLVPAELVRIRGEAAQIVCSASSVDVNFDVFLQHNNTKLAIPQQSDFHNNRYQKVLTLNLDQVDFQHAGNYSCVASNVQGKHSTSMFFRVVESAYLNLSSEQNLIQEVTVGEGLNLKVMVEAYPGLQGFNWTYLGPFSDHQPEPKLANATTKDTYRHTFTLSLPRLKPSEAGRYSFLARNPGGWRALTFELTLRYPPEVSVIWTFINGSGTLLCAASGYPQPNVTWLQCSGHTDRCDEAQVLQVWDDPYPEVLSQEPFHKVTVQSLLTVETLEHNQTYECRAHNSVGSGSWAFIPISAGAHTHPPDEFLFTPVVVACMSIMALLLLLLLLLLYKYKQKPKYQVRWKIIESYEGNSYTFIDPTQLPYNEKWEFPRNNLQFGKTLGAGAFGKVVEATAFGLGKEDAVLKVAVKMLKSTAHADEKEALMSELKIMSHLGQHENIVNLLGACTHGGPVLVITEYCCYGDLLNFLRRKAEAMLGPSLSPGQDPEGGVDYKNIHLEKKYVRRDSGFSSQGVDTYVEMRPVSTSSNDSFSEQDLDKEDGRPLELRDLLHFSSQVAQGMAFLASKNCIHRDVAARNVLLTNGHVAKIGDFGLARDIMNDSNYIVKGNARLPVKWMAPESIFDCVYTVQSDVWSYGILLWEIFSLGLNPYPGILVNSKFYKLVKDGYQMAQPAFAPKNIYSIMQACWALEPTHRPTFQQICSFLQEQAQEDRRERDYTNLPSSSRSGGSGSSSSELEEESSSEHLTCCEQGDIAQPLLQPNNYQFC

Row | Structure (SMILES) | IC50 [1] | inhibition at 10 µM (at 10 μM compound) | also measured
1 | O=C(Nc1ccccc1N1CCOCC1)c1ccc([N+](=O)[O-])o1 | > 1000 nM | 89% | –
2 | CC1CCN(c2ccccc2NC(=O)c2ccc([N+](=O)[O-])o2)CC1 | – | – | IC50: < 1000 nM; inhibition at 10 µM: 92%
3 | CC1CCCN(c2ccccc2NC(=O)c2ccc([N+](=O)[O-])o2)C1 (stereo not drawn) | < 1000 nM | 96% | –
4 | O=C(Nc1ccccc1N1CCCCC1)c1n[nH]cc1[N+](=O)[O-] | > 1000 nM | 61% | –
5 | O=C(Nc1ccccc1N1CCC(CCO)CC1)c1ccc([N+](=O)[O-])o1 | < 1000 nM | 100% | –
6 | O=C(Nc1ccccc1N1CCC(CO)CC1)c1ccc([N+](=O)[O-])o1 | < 1000 nM | 100% | –
7 | CC(C)(N)c1ccc(NC(=O)c2nc(C#N)c[nH]2)c(C2=CCCCC2)c1 [Example 14, 4-Cyano-1H-imidazole-2-carboxylic acid [4-(1-amino-1-methyl-ethyl)-2-cyclohex-1-enyl-phenyl]-amide, acetic acid salt] | – | – | IC50 [2]: < 1000 nM
8 | CC1(C)CC=C(c2ccccc2NC(=O)c2nc(C#N)c[nH]2)CC1 [Example 67, 4-Cyano-1H-imidazole-2-carboxylic acid [2-(4,4-dimethyl-cyclohex-1-enyl)-phenyl]-amide] | – | – | IC50 [2]: < 1000 nM
9 | O=C(Nc1ccccc1N1CCC(O)CC1)c1ccc([N+](=O)[O-])o1 | < 1000 nM | 98% | –
10 | O=C(Nc1ccccc1N1CCCCC1)c1cc([N+](=O)[O-])n[nH]1 | > 1000 nM | – | inhibition at 2 µM: 50%
11 | CC(C)c1ccc(NC(=O)c2nc(C#N)c[nH]2)c(C2=CCCCC2)c1 [Example 22, 4-Cyano-1H-imidazole-2-carboxylic acid (2-cyclohex-1-enyl-4-isopropyl-phenyl)-amide] | – | – | IC50 [2]: < 1000 nM
12 | CCOc1ccccc1NC(=O)c1ccc([N+](=O)[O-])o1 | > 1000 nM | 56% | –
13 | CC(C)(O)c1ccc(NC(=O)c2nc(C#N)c[nH]2)c(C2=CCCCC2)c1 [Example 12, 4-Cyano-1H-imidazole-2-carboxylic acid [2-cyclohex-1-enyl-4-(1-hydroxy-1-methyl-ethyl)-phenyl]-amide] | – | – | IC50 [2]: < 1000 nM
14 | CC1CCN(c2ccccc2NC(=O)c2nc(C#N)c[nH]2)CC1 [Example 41, 4-Cyano-1H-imidazole-2-carboxylic acid [2-(4-methyl-piperidin-1-yl)-phenyl]-amide trifluoroacetic acid salt] | – | – | IC50 [2]: < 1000 nM
15 | O=C(Nc1ccccc1N1CCCCC1)c1cc([N+](=O)[O-])ccn1 | > 1000 nM | 90% | –
16 | C[C@@H]1CN(c2ccccc2NC(=O)c2ccc([N+](=O)[O-])o2)C[C@H](C)O1 | > 1000 nM | 72% | –
17 | CC1(C)CCN(c2ncccc2NC(=O)c2nc(C#N)c[nH]2)CC1 [Example 63, 4-Cyano-1H-imidazole-2-carboxylic acid (4,4-dimethyl-3,4,5,6-tetrahydro-2H-[1,2′]bipyridinyl-3′-yl)-amide trifluoroacetic acid salt] | – | – | IC50 [2]: < 1000 nM
18 | C[C@H]1CN(c2ccccc2NC(=O)c2ccc([N+](=O)[O-])o2)C[C@H](C)O1 | > 1000 nM | 80% | –
19 | CC1(C)CC=C(c2ncccc2NC(=O)c2nc(C#N)c[nH]2)CC1 [Example 42, 4-Cyano-1H-imidazole-2-carboxylic acid [2-(4,4-dimethyl-cyclohex-1-enyl)-pyridin-3-yl]-amide trifluoroacetic acid salt] | – | – | IC50 [2]: < 1000 nM
20 | O=C(Nc1ccccc1N1CCCCC1)c1cc([N+](=O)[O-])c[nH]1 | < 1000 nM | 99% | –
21 | COC(C)(C)c1ccc(NC(=O)c2nc(C#N)c[nH]2)c(C2=CCCCC2)c1 [Example 13, 4-Cyano-1H-imidazole-2-carboxylic acid [2-cyclohex-1-enyl-4-(1-methoxy-1-methyl-ethyl)-phenyl]-amide] | – | – | IC50 [2]: < 1000 nM

Further lines, with some results ahead:

Row | IC50 [1] | inhibition at 10 µM (at 10 μM compound) | Structure (SMILES) | also measured
22 | < 1000 nM | 99% | N#Cc1ccc(C(=O)Nc2ccccc2N2CCCCC2)o1 | –
23 | > 1000 nM | 86% | O=Cc1ccc(C(=O)Nc2ccccc2N2CCCCC2)o1 | –
24 | < 1000 nM | – | COc1ccc(N2CCCCC2)c(NC(=O)c2ccc(C#N)o2)c1 | inhibition at 2 µM: 99%
25 | – | 91% | O=C(Nc1ccccc1N1CCCCC1)c1ccc([N+](=O)[O-])o1 | –
26 | > 1000 nM | 77% | O=C(Nc1ccccc1N1CCCCC1)c1cccc([N+](=O)[O-])c1 | –
27 | < 1000 nM | – | N#Cc1ccc(C(=O)Nc2ccccc2N2CCC(CCO)CC2)o1 | inhibition at 2 µM: 97%
28 | < 1000 nM | – | N#Cc1ccc(C(=O)Nc2cc(CNCC(O)CO)ccc2N2CCCCC2)o1 (stereo not drawn) | inhibition at 2 µM: 93%
29 | < 1000 nM | 100% | O=C(Nc1cc(CO)ccc1N1CCCCC1)c1ccc([N+](=O)[O-])o1 | –
30 | < 1000 nM | – | N#Cc1ccc(C(=O)Nc2ccc(F)cc2N2CCCCC2)o1 | inhibition at 2 µM: 94%
31 | > 1000 nM | – | N#Cc1ccc(C(=O)Nc2ccccc2N2CCC(O)CC2)o1 | inhibition at 2 µM: 90%
32 | < 1000 nM | 100% | O=C(Nc1ccccc1N1CCCCCC1)c1ccc([N+](=O)[O-])o1 | –
33 | < 1000 nM | – | O=C(Nc1cc(F)ccc1N1CCCCC1)c1ccc([N+](=O)[O-])o1 | –
34 | < 1000 nM | – | N#Cc1ccc(N2CCCCC2)c(NC(=O)c2ccc(C#N)o2)c1 | inhibition at 2 µM: 95%
35 | > 1000 nM | 50% | Cc1cccc(N2CCCCC2)c1NC(=O)c1ccc(C#N)o1 | –
36 | < 1000 nM | – | N#Cc1ccc(C(=O)Nc2ccccc2N2CCC(CO)CC2)o1 | inhibition at 2 µM: 93%
37 | > 1000 nM | 60% | CC(=O)c1ccc(C(=O)Nc2ccccc2N2CCCCC2)s1 | –
38 | < 1000 nM | 97% | CC1CCN(c2ccccc2NC(=O)c2ccc(C#N)o2)CC1 | –
39 | < 1000 nM | – | CS(=O)(=O)NCc1ccc(N2CCCCC2)c(NC(=O)c2ccc(C#N)o2)c1 | inhibition at 2 µM: 100%
40 | > 1000 nM | 61% | N#Cc1ccc(C(=O)Nc2c(F)cccc2N2CCCCC2)o1 | –
41 | > 1000 nM | 88% | O=C(Nc1ccccc1N1CCCCC1)c1ccc(Cl)o1 | –
42 | > 1000 nM | 24% | O=C(O)c1ccc(C(=O)Nc2ccccc2N2CCCCC2)o1 | –
43 | > 1000 nM | 68% | O=C(Nc1ccccc1N1CCCCC1)c1ccc(Br)o1 | –
44 | < 1000 nM | – | N#Cc1ccc(C(=O)Nc2ccc(Cl)cc2N2CCCCC2)o1 | inhibition at 2 µM: 90%
